Reference: ChEMBL document CHEMBL5365426, “Modification of N-hydroxycytidine yields a novel lead compound exhibiting activity against the Venezuelan equine encephalitis virus” (Bioorg Med Chem Lett, 2023)

Legend:
[1] = tested on: Venezuelan equine encephalitis virus; experiment: Antiviral activity against Venezuelan equine encephalitis virus infected in human MRC5 cells assessed as inhibition of viral infection at 100 uM relative to control; assay type: functional
[2] = tested on: Venezuelan equine encephalitis virus; experiment: Antiviral activity against Venezuelan equine encephalitis virus infected in human MRC5 cells assessed as virus induced cell death at 100 uM relative to control; assay type: functional
[3] = Cytotoxicity against human MRC-5 cells assessed as reduction in cell viability; assay type: toxicity, cell-based, MRC5
[4] = tested on: Venezuelan equine encephalitis virus; experiment: Antiviral activity against Venezuelan equine encephalitis virus infected in human MRC5 cells assessed as inhibition of virus induced cytopathic effect; assay type: functional, organism-based
[5] = Safety index, ratio of CC50 for cytotoxicity against human MRC-5 cells to EC50 for antiviral activity against Venezuelan equine encephalitis virus infected in human MRC5 cells; assay type: toxicity, cell-based; details: read-out: Ratio CC50/EC50

SMILES	inhibition at 100 µM [1]	Activity [2]	CC50 [3]	EC50 [4]	selectivity ratio [5]
CC(C)C(OCc1cn([C@@H]2O[C@H](CO)[C@@H](O)[C@H]2O)c(=O)[nH]c1=O)c1ccccc1 (stereo partly specified)	29%	9.09%	–	–	–
Cc1ccccc1C(OCc1cn([C@@H]2O[C@H](CO)[C@@H](O)[C@H]2O)c(=O)[nH]c1=N)C(C)(C)C (stereo partly specified)	34.4%	22.95%	–	–	–
CC(OCc1cn([C@H]2O[C@H](CO)[C@@H](O)[C@H]2O)c(=O)[nH]c1=O)c1ccccc1 (stereo partly specified)	30.6%	25.09%	–	–	–
O=c1[nH]c(=O)n([C@@H]2O[C@H](CO)[C@@H](O)[C@H]2O)cc1COCc1ccccc1Cl	30.9%	12.17%	–	–	–
CC(C)C(OCc1c[nH]c(=O)[nH]c1=O)c1ccccc1 (stereo unspecified)	5.87%	7.76%	–	–	–
O=c1[nH]c(=O)n([C@H]2O[C@H](CO)[C@@H](O)[C@H]2O)cc1COCc1ccccc1	23%	11.03%	–	–	–
CC(OCc1cn([C@@H]2O[C@H](CO)[C@@H](O)[C@H]2O)c(=O)[nH]c1=N)c1ccccc1 (stereo partly specified)	31%	11.51%	–	–	–
Cc1ccccc1C(OCc1cn([C@@H]2O[C@H](CO)[C@@H](O)[C@H]2O)c(=O)[nH]/c1=N\O)C(C)(C)C (stereo partly specified)	24.4%	18.59%	–	–	–
O=c1[nH]c(=O)n([C@@H]2O[C@H](CO)[C@@H](O)[C@H]2O)cc1COC(c1ccccc1)C1CCCCC1 (stereo partly specified)	15.9%	16.28%	–	–	–
O=c1nc(NO)ccn1[C@@H]1O[C@H](CO)[C@@H](O)[C@H]1O [N-HYDROXYCYTIDINE]	–	–	95.5 µM	2.3 µM	41.5
Cc1ccccc1C(OCc1cn([C@@H]2O[C@H](CO)[C@@H](O)[C@H]2O)c(=O)[nH]c1=O)C(C)(C)C (stereo partly specified)	34%	27.83%	–	–	–
O=c1[nH]c(=O)n([C@@H]2O[C@H](CO)[C@@H](O)[C@H]2O)cc1CO	17.4%	11.71%	–	–	–
O=c1[nH]/c(=N\O)c(COCc2ccccc2Cl)cn1[C@@H]1O[C@H](CO)[C@@H](O)[C@H]1O	41.1%	6.38%	–	–	–
CC(OCc1cn([C@@H]2O[C@H](CO)[C@@H](O)[C@H]2O)c(=O)[nH]/c1=N\O)c1ccccc1 (stereo partly specified)	10.5%	5.54%	–	–	–
O=c1[nH]cc(CO)c(=O)[nH]1	16.8%	7.97%	–	–	–
CC(C)(C)C(OCc1cn([C@@H]2O[C@H](CO)[C@@H](O)[C@H]2O)c(=O)[nH]c1=O)c1ccccc1 (stereo partly specified)	16.6%	17.18%	–	–	–
CC(C)(C)C(OCc1c[nH]c(=O)[nH]c1=O)c1ccccc1 (stereo unspecified)	11.7%	4.02%	–	–	–
CC(C)(C)C(OCc1cn([C@@H]2O[C@H](CO)[C@@H](O)[C@H]2O)c(=O)[nH]c1=N)c1ccccc1Cl (stereo partly specified)	29.3%	18.8%	–	–	–
O=c1[nH]cc(COCc2ccccc2)c(=O)[nH]1	9.66%	0.22%	–	–	–
N=c1[nH]c(=O)n([C@@H]2O[C@H](CO)[C@@H](O)[C@H]2O)cc1CO	12.2%	29.79%	–	–	–
O=c1[nH]/c(=N\O)c(COCc2ccccc2)cn1[C@@H]1O[C@H](CO)[C@@H](O)[C@H]1O	12.4%	16.09%	–	–	–
CC(C)C(OCc1cn([C@@H]2O[C@H](CO)[C@@H](O)[C@H]2O)c(=O)[nH]c1=N)c1ccccc1 (stereo partly specified)	28.2%	7.99%	–	–	–
CC(C)(C)C(OCc1cn([C@@H]2O[C@H](CO)[C@@H](O)[C@H]2O)c(=O)[nH]/c1=N\O)c1ccccc1 (stereo partly specified)	30.3%	20.09%	–	–	–

SMILES	inhibition at 100 µM [1]	Activity [2]	CC50 [3]	EC50 [4]	selectivity ratio [5]
O=c1[nH]/c(=N\O)c(CO)cn1[C@@H]1O[C@H](CO)[C@@H](O)[C@H]1O	5.24%	4.99%	–	–	–
O=c1[nH]/c(=N\O)c(COC(c2ccccc2)C2CCCCC2)cn1[C@@H]1O[C@H](CO)[C@@H](O)[C@H]1O (stereo partly specified)	35.5%	25.09%	–	–	–
CCC(OCc1cn([C@@H]2O[C@H](CO)[C@@H](O)[C@H]2O)c(=O)[nH]c1=N)c1ccccc1 (stereo partly specified)	14.3%	8.31%	–	–	–
CC(C)(C)C(OCc1cn([C@@H]2O[C@H](CO)[C@@H](O)[C@H]2O)c(=O)[nH]c1=N)c1ccccc1 (stereo partly specified)	13.1%	10.91%	–	–	–
O=c1[nH]cc(COC(c2ccccc2)C2CCCCC2)c(=O)[nH]1 (stereo unspecified)	10.5%	8.05%	–	–	–
CC(C)(C)C(OCc1cn([C@@H]2O[C@H](CO)[C@@H](O)[C@H]2O)c(=O)[nH]c1=O)c1ccccc1Cl (stereo partly specified)	37.2%	20.09%	–	–	–
CC(C)(C)C(OCc1cn([C@@H]2O[C@H](CO)[C@@H](O)[C@H]2O)c(=O)[nH]/c1=N\O)c1ccccc1Cl (stereo partly specified)	95.3%	30.28%	135 µM	37.6 µM	3.59
O=c1[nH]cc(COCc2ccccc2Cl)c(=O)[nH]1	12.9%	9.35%	–	–	–
CC(OCc1cn([C@@H]2O[C@H](CO)[C@@H](O)[C@H]2O)c(=O)[nH]c1=O)c1ccccc1 (stereo partly specified)	16.8%	5.05%	–	–	–
CCC(OCc1cn([C@H]2O[C@H](CO)[C@@H](O)[C@H]2O)c(=O)[nH]c1=O)c1ccccc1 (stereo partly specified)	26.3%	20.81%	–	–	–
N=c1[nH]c(=O)n([C@@H]2O[C@H](CO)[C@@H](O)[C@H]2O)cc1COCc1ccccc1	24.9%	18.86%	–	–	–
CC(C)C(OCc1cn([C@H]2O[C@H](CO)[C@@H](O)[C@H]2O)c(=O)[nH]c1=O)c1ccccc1 (stereo partly specified)	20.5%	17.19%	–	–	–
O=c1[nH]c(=O)n([C@@H]2O[C@H](CO)[C@@H](O)[C@H]2O)cc1COCc1ccccc1	25.5%	22.88%	–	–	–
CCC(OCc1cn([C@@H]2O[C@H](CO)[C@@H](O)[C@H]2O)c(=O)[nH]c1=O)c1ccccc1 (stereo partly specified)	22.1%	8.2%	–	–	–
CCC(OCc1c[nH]c(=O)[nH]c1=O)c1ccccc1 (stereo unspecified)	24.8%	6.21%	–	–	–
N=c1[nH]c(=O)n([C@@H]2O[C@H](CO)[C@@H](O)[C@H]2O)cc1COCc1ccccc1Cl	29%	10.11%	–	–	–
CC(C)C(OCc1cn([C@@H]2O[C@H](CO)[C@@H](O)[C@H]2O)c(=O)[nH]/c1=N\O)c1ccccc1 (stereo partly specified)	16.5%	9.54%	–	–	–
O=c1[nH]c(=O)n([C@H]2O[C@H](CO)[C@@H](O)[C@H]2O)cc1COCc1ccccc1Cl	18.8%	12.73%	–	–	–
CCC(OCc1cn([C@@H]2O[C@H](CO)[C@@H](O)[C@H]2O)c(=O)[nH]/c1=N\O)c1ccccc1 (stereo partly specified)	10.5%	4.87%	–	–	–
Cc1ccccc1C(OCc1c[nH]c(=O)[nH]c1=O)C(C)(C)C (stereo unspecified)	21.4%	3.54%	–	–	–
CC(C)(C)C(OCc1c[nH]c(=O)[nH]c1=O)c1ccccc1Cl (stereo unspecified)	11.6%	4.74%	–	–	–
N=c1[nH]c(=O)n([C@@H]2O[C@H](CO)[C@@H](O)[C@H]2O)cc1COC(c1ccccc1)C1CCCCC1 (stereo partly specified)	24.9%	17.83%	–	–	–
CC(OCc1c[nH]c(=O)[nH]c1=O)c1ccccc1 (stereo unspecified)	10.1%	11.63%	–	–	–
